# Laboratory results reported in publication PMC9241695, “Selective Metal Chelation by a Thiosemicarbazone Derivative Interferes with Mitochondrial Respiration and Ribosome Biogenesis in Candida albicans” (Microbiology Spectrum, 2022).
# Experiments:
# [1] = system: mammalian cells of 16HBE or HepG2; test: CCK-8 reduction assay, mitochondrial dehydrogenase activity; format: cell-based, human; details: 5 μg/mL, 12 h or 48 h
# Description: the fluorescent complex […] (CTF) is commonly used to indicate the intensity of microbial respiration. C. albicans SC5314 treated with 19ak was stained with 1 mM CTC for 30 min, followed by flow cytometry analysis of respiratory activity based on fluorescence intensity. Images of cells were obtained using a fluorescence microscope (IX71, Olympus, Tokyo, Japan). The Cell Counting Kit-8 (CCK-8) assay is used to measure the dehydrogenase activity in the mitochondria of C. albicans or mammalian cells. C. albicans SC5314 (5 × 10^6 cells/mL in RPMI1640 medium) were treated with different concentrations of 19ak in 96-well plates at 30°C for 12 h or 48 h. 10 μL of CCK-8 solution was added to each well. After an additional 2 h of incubation, OD450 in each well was detected with a microplate reader. […]
# Mitochondrial isolation and detection of mitochondrial respiratory chain complex activity. […] The activities of mitochondrial respiratory chain complexes I-IV were determined by using the Micro Mitochondrial Respiratory Chain Complex Activity Assay Kit (Solarbio, Beijing, China). The concentration of protein was determined using the BCA Protein Assay Kit (Beyotime, Haimen, China).
# (§1) Mitochondrial complex activity was expressed as nmol/min/mg protein. […]
# C. albicans SC5314 [2] = test: Minimal fungicidal concentration (MFC); format: cell-based; details: Candida albicans, read-out: MFC against C. albicans SC5314
# CAT = test: Catalase (CAT) activity in treated cells; format: cell-based; details: 0.5 μg/mL or above, 6 h
# Description: Determination of SOD activity. SOD activity was measured using the Superoxide Dismutase Activity Assay Kit (Njjcbio, Nanjing, China) following the manufacturer's instructions. An overnight culture of C. albicans SC5314 was adjusted to 1 × 10^7 cells/mL with RPMI1640 medium and treated with 19ak at a final concentration of 0, 0.125, 0.25, 0.5, or 1 μg/mL for 6 h. After collection by centrifugation, the cells were broken by glass beads in extraction buffer and centrifuged at 4°C. The absorbance of the supernatant of each sample was measured with a microplate reader at450 nm.
# Determination of catalase (CAT) activity. CAT activity was measured by using a Catalase Assay Kit (Solarbio, Beijing, China) following the manufacturer's instructions. An overnight culture of C. albicans SC5314 was adjusted to 1 × 10^6 cells/mL with RPMI1640 medium and treated as described above for SOD activity.
# The decomposition of H2O2 is directly accompanied by a decrease in absorbance at 240 nm, and the difference in absorbance per unit time (ΔA240) is a measure of […]
# Quantitative real-time polymerase chain reaction (qPCR) analysis. C. albicans SC5314 cells (1 × 10^6 cells/mL) were incubated with or without 19ak (0.5,2 μg/mL) in RPMI1640 medium for 6 h. Total RNA was extracted using the hot phenol method, and the RNA quality was analyzed using a spectrophotometer (Eppendorf, Hamburg, Germany). […]
# C. albicans SC5314 [3] = test: Respiratory activity by CTC staining; format: cell-based, Candida albicans; details: 6 h, 1 mM CTC; 19ak 0.125-1 μg/mL, TPEN 0.05-0.4 μg/mL
# Description: h (for C. albicans, C. krusei, C. tropicalis, C. parapsilosis) or 48 h (for C. neoformans, A. fumigatus). The MIC was determined based on visible growth inhibition compared with the control. All experiments were performed in duplicate.
# Cytotoxicity testing. The cell lines HK2 and 16HBE were used to evaluate the cytotoxicity of 19ak, 19k and 19t. Cells in DMEM containing 10% fetal bovine serum (Gibco) were seeded in 96-well tissue culture plates at a cell density of 1 × 10^4 cells/mL and incubated for 24 h to allow adhesion. The supernatant was then replaced with fresh DMEM containing various concentrations of 19ak, 19k and 19t. […]
# The effects of the compounds on cell proliferation were detected by measuring the absorbance at 570 nm in a microplate reader (BioTek, VT, USA). […]
# the fluorescent complex […] (CTF) is commonly used to indicate the intensity of microbial respiration. C. albicans SC5314 treated with 19ak was stained with 1 mM CTC for 30 min, followed by flow cytometry analysis of respiratory activity based on fluorescence intensity. Images of cells were obtained using a fluorescence microscope (IX71, Olympus, Tokyo, Japan). […] After an additional 2 h of incubation, OD450 in each well was detected with a microplate reader. […]
# as §1
# C. albicans SC5314 cells = test: Intracellular labile zinc levels using Zinbo-5; format: cell-based, Candida albicans; details: 6 h
# Description: C. albicans SC5314 cells grown overnight were pelleted, washed three times with PBS buffer, and resuspended to obtain an OD600 of 2.0. Next, the cells were incubated with various concentrations of 19ak in 96-well plates at 30°C for 6 h, followed by incubation with 10 μM Zinbo-5 for 30 min. Finally, fluorescence was measured in a microplate reader (excitation at 355 nm, emission at 485 nm). Similar approach was used in detection of intracellular zinc levels of mammalian cells.
smiles,measurement,setting,value
C/C(=N\NC(=S)N(C)C)c1ccccn1 [Compound 19ak],Mitochondrial dehydrogenase activity of mammalian cells (CCK-8),[1],minimal inhibitory effect
same,MFC,C. albicans SC5314 [2],64 mg/L
same,CAT activity,CAT,increased
same,Mitochondrial respiratory activity (CTC fluorescence intensity),C. albicans SC5314 [3],dose-dependently reduced
same,Labile zinc ions (Zinbo-5 fluorescence),C. albicans SC5314 cells; 0.125 μg/mL,decreased
same,Reduction of intracellular zinc ions,C. albicans SC5314 cells; 1 μg/mL,approximately 59.6%
